Assay results as given in US10821195B2, “Compositions for therapeutics, targeted PET imaging and methods of their use” (Memorial Sloan Kettering Cancer Center, priority 2015, dated 2020).
“And” between values parts separate entries of the source, which are not always exact repeats. Equal values may be shown once.

Assays:
[1] = Biodistribution and clearance of ^89Zr-HOPO and ^89Zr-DFO in healthy mice; type: in vivo, healthy athymic nude mice; parameters: biodistribution Spleen / biodistribution Stomach / biodistribution Large Intestine / biodistribution Small Intestine / biodistribution Kidney / biodistribution Bladder / biodistribution Muscle / biodistribution Bone / biodistribution Tail / biodistribution Blood / biodistribution Heart / biodistribution Lung / biodistribution Gall Bladder / biodistribution Liver: unit not given here
From the text: Significant uptake of ^89Zr-HOPO occurs in the gall bladder and intestines as well as the kidney. […] As ^89Zr-DFO is cleared exclusively through the kidneys and not through the hepatobiliary system, it is excreted from the body faster than ^89Zr-HOPO, as evidenced by the blood clearance curve (FIG. 10). While not wishing to be bound to theory, upon conjugation to an antibody, the pharmacokinetics of a ^89Zr-HOPO complex comprising ^89Zr-HOPO and an antibody can be superseded by those of the biomacromolecule, meaning that a difference in clearance pathways between ^89Zr-HOPO and ^89Zr-DFO should not be a concern. However, over the short circulation time of the Zr-ligand complexes, neither DFO nor HOPO show any signs of instability or bone accumulation.

[2] = EDTA transchelation challenge of ^89Zr complexes; type: physicochemical; details: 50-fold excess of EDTA, 37° C., various pHs, 7 days
From the text: (§1) In contrast, ^89Zr-HOPO is shown to be approximately impervious to the EDTA. […] This represents a significant improvement in the stability of the Zr-ligand complex at lower pH. […] Initially activity is seen in the bladder, gall bladder, and intestines.

[3] = Partition coefficients of ^89Zr complexes at pH 7.4; type: physicochemical
From the text: Without having to be bound to any theory, the difference in clearance pathways between the two complexes is the difference in their partitions coefficients.

FIG. 2 = experiment: FIG. 2
From the text: Table printed on a drawing sheet, FIG. 2
as §1
First reader's note: Cell hatching encodes the percent-intact class given in the legend; the values show stability of the radiometal-chelator complexes against EDTA transchelation.

[4] = Stability of ^89Zr complexes in human serum at 37° C. for 7 d (ITLC, SEC); details: bare ligand complexes, one week
Procedure: Seven day old samples of the Zr-ligand complexes were run down a size exclusion column to differentiate protein and ligand.
Serum stability and immunoreactivity of ^89Zr-complexes were evaluated. To determine the stability in serum, ^89Zr-complexes were incubated in human serum at 37° C. for 7 d. The percentage of intact species was monitored by ITLC (Table 9).
^89Zr-ligand and ^89Zr-ligand-antibody complexes were prepared according to the radiolabeling protocol as described above. For each ^89Zr complex, samples were made consisting of 900 μL human serum and 100 μL of the ^89Zr species and were placed in a heat block at 37° C. with agitation. Samples were monitored using radio-TLC before being added to the serum and then after 1 week of incubation. The stability of the complexes was measured as the percentage of ^89Zr that was retained at the origin of the ITLC strip and therefore still intact.

O=C1NCCCN2CCCCN3CCCNC(=O)c4cccc(=O)n4[O][89Zr]([O]n4c1cccc4=O)([O]n1c(cccc1=O)C2=O)[O]n1c(cccc1=O)C3=O [^89Zr-HOPO]
biodistribution Bladder ([1]; 10 min): 2.04 ± 1.06 | biodistribution Blood ([1]; 10 min): 3.24 ± 0.66 | biodistribution Bone ([1]; 10 min): 1.04 ± 0.44 | biodistribution Gall Bladder ([1]; 10 min): 6.61 ± 2.87 | biodistribution Heart ([1]; 10 min): 1.57 ± 0.22 | biodistribution Kidney ([1]; 10 min): 9.46 ± 2.71 | biodistribution Large Intestine ([1]; 10 min): 0.26 ± 0.15 | biodistribution Liver ([1]; 10 min): 3.29 ± 0.75 | biodistribution Lung ([1]; 10 min): 1.07 ± 0.17 | biodistribution Muscle ([1]; 10 min): 0.36 ± 0.06 | biodistribution Small Intestine ([1]; 10 min): 5.99 ± 1.18 | biodistribution Spleen ([1]; 10 min): 0.31 ± 0.04 | biodistribution Stomach ([1]; 10 min): 1.22 ± 0.39 | biodistribution Tail ([1]; 10 min): 4.25 ± 1.46 | Blood/Bone ratio ([1]; 1 h): 0.6 ± 0.4 | Muscle/Bone ratio ([1]; 1 h): 0.34 ± 0.15 | biodistribution Bladder ([1]; 1 h): 0.73 ± 0.36 | biodistribution Blood ([1]; 1 h): 0.17 ± 0.10 | biodistribution Bone ([1]; 1 h): 0.29 ± 0.09 | biodistribution Gall Bladder ([1]; 1 h): 6.94 ± 3.38 | biodistribution Heart ([1]; 1 h): 0.12 ± 0.06 | biodistribution Kidney ([1]; 1 h): 1.05 ± 0.51 | biodistribution Large Intestine ([1]; 1 h): 0.09 ± 0.06 | biodistribution Liver ([1]; 1 h): 0.22 ± 0.09 | biodistribution Lung ([1]; 1 h): 0.17 ± 0.09 | biodistribution Muscle ([1]; 1 h): 0.10 ± 0.03 | biodistribution Small Intestine ([1]; 1 h): 1.11 ± 0.35 | biodistribution Spleen ([1]; 1 h): 0.09 ± 0.03 | biodistribution Stomach ([1]; 1 h): 0.30 ± 0.15 | biodistribution Tail ([1]; 1 h): 0.81 ± 0.34 | Blood/Bone ratio ([1]; 4 h): 0.2 ± 0.2 | Muscle/Bone ratio ([1]; 4 h): 0.4 ± 0.3 | biodistribution Bladder ([1]; 4 h): 0.58 ± 0.27 | biodistribution Blood ([1]; 4 h): 0.05 ± 0.04 | biodistribution Bone ([1]; 4 h): 0.23 ± 0.12 | biodistribution Gall Bladder ([1]; 4 h): 1.00 ± 0.41 | biodistribution Heart ([1]; 4 h): 0.06 ± 0.01 | biodistribution Kidney ([1]; 4 h): 0.40 ± 0.14 | biodistribution Large Intestine ([1]; 4 h): 7.17 ± 2.15 | biodistribution Liver ([1]; 4 h): 0.13 ± 0.01 | biodistribution Lung ([1]; 4 h): 0.08 ± 0.01 | biodistribution Muscle ([1]; 4 h): 0.09 ± 0.06 | biodistribution Small Intestine ([1]; 4 h): 0.12 ± 0.13 | biodistribution Spleen ([1]; 4 h): 0.06 ± 0.01 | biodistribution Stomach ([1]; 4 h): 0.50 ± 0.74 | biodistribution Tail ([1]; 4 h): 0.29 ± 0.18 | biodistribution Bladder ([1]; 12 h): 0.54 ± 0.26 | biodistribution Blood ([1]; 12 h): 0.02 ± 0.00 | biodistribution Bone ([1]; 12 h): 0.25 ± 0.07 | biodistribution Gall Bladder ([1]; 12 h): 2.45 ± 1.02 | biodistribution Heart ([1]; 12 h): 0.06 ± 0.01 | biodistribution Kidney ([1]; 12 h): 0.53 ± 0.23 | biodistribution Large Intestine ([1]; 12 h): 0.10 ± 0.03 | biodistribution Liver ([1]; 12 h): 0.09 ± 0.02 | biodistribution Lung ([1]; 12 h): 0.06 ± 0.01 | biodistribution Muscle ([1]; 12 h): 0.06 ± 0.01 | biodistribution Small Intestine ([1]; 12 h): 0.02 ± 0.01 | biodistribution Spleen ([1]; 12 h): 0.05 ± 0.01 | biodistribution Stomach ([1]; 12 h): 0.01 ± 0.00 | biodistribution Tail ([1]; 12 h): 0.11 ± 0.04 | Blood/Bone ratio ([1]; 1 d): 0.12 ± 0.02 | Muscle/Bone ratio ([1]; 1 d): 0.35 ± 0.09 | biodistribution Bladder ([1]; 24 h): 0.28 ± 0.14 | biodistribution Blood ([1]; 24 h): 0.02 ± 0.00 | biodistribution Bone ([1]; 24 h): 0.17 ± 0.03 | biodistribution Gall Bladder ([1]; 24 h): 1.15 ± 0.59 | biodistribution Heart ([1]; 24 h): 0.07 ± 0.01 | biodistribution Kidney ([1]; 24 h): 0.51 ± 0.29 | biodistribution Large Intestine ([1]; 24 h): 0.03 ± 0.02 | biodistribution Liver ([1]; 24 h): 0.06 ± 0.03 | biodistribution Lung ([1]; 24 h): 0.06 ± 0.05 | biodistribution Muscle ([1]; 24 h): 0.06 ± 0.01 | biodistribution Small Intestine ([1]; 24 h): 0.02 ± 0.00 | biodistribution Spleen ([1]; 24 h): 0.06 ± 0.01 | biodistribution Stomach ([1]; 24 h): 0.02 ± 0.00 | biodistribution Tail ([1]; 24 h): 0.05 ± 0.01 | Blood/Bone ratio ([1]; […]): 3.1 ± 1.5 | Muscle/Bone ratio ([1]; […]): 0.35 ± 0.16 | clearance route ([1]; healthy mice): cleared through both renal and hepatobiliary excretion | stability to transchelation by EDTA [2]: remains intact for the full 7 days | partition coefficient (lipophilicity) [3]: more lipophilic than ^89Zr-DFO | % INTACT STARTING SPECIES BY INCUBATION TIME | 1 h (FIG. 2): 99.8±0.4% and 99.3±1.3% and 99.0±1.8% | % INTACT STARTING SPECIES BY INCUBATION TIME | 7 d (FIG. 2): 99.6±0.7% and 99.2±1.5% | % INTACT STARTING SPECIES BY INCUBATION TIME | INITIAL (FIG. 2): 99.7±0.6% and 99.5±0.9% | stability in human serum (ITLC and SEC) [4]: stable in serum over 7 days
